Experimental data from ChEMBL document CHEMBL1201862, “PubChem BioAssay data set” (2004).
The source made the active and inactive calls.

How the values were obtained:
[1] = HEK-293T viability loss after treatment – luminescence, T-cell screen hits, cytotoxicity control for TCR NF-kB inhibitor project, dose response (AID 489026); type: functional, cell-based;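 note: cells exposed to compound about 14 hours before the viability readout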
[2] = target: Peroxisome proliferator-activated receptor gamma/Nuclear receptor coactivator 3 (Homo sapiens, UniProt P37231); type: functional;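 note: agonist potency for raising coactivator recruitment to the receptor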
[3] = target: Peroxisome proliferator-activated receptor gamma/Nuclear receptor coactivator 1 (Homo sapiens, UniProt P37231); type: functional;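 note: agonist potency as compounds enhance coactivator SRC-1 recruitment to PPARgamma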
[4] = target: T1, Voltage-gated N-type calcium channel alpha-1B subunit/Amyloid beta A4 precursor protein-binding family A member 1 (Homo sapiens, UniProt Q00975+Q02410); type: protein assay
[5] = target: DNA dC->dU-editing enzyme APOBEC-3G (Homo sapiens, UniProt Q9HC16); experiment: Dose Response confirmation of small molecule APOBEC3G DNA Deaminase Inhibitors via a fluorescence-based single-stranded DNA deaminase assay. [Related pubchem assays (depositor defined):AID493012, AID493028]; type: functional
[6] = target: Peroxisome proliferator-activated receptor gamma/Nuclear receptor coactivator 2 (Homo sapiens, UniProt P37231); type: functional;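 note: agonist potency for raising coactivator recruitment to the receptor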
[7] = target: T1, Voltage-gated N-type calcium channel alpha-1B subunit/Amyloid beta A4 precursor protein-binding family A member 1; type: protein assay; remark: listed apart in the source
[8] = target: T2, Alkaline phosphatase, tissue-nonspecific isozyme (Homo sapiens, UniProt P05186); experiment: TNAP enzyme inhibition by screening hits, dose response, selectivity assay for mouse IAP inhibitor project, biochemical, human TNAP, uHTS hits (AID 488906); type: functional
T2 sequence (P05186 whole entry): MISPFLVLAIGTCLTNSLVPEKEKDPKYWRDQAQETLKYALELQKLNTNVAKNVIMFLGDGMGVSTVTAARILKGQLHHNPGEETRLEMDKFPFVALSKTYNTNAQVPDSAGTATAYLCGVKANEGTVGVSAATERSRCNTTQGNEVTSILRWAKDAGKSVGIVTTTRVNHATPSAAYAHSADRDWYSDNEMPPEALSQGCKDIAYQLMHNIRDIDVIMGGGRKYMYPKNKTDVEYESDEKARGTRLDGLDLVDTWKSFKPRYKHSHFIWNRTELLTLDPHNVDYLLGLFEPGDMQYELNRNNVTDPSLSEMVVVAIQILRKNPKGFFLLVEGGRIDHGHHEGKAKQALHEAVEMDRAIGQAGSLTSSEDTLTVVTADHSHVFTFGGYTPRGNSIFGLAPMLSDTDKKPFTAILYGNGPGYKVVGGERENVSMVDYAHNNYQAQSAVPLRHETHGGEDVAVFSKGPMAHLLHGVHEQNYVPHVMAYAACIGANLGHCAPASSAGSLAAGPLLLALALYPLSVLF

[9] = target: Intestinal-type alkaline phosphatase (Homo sapiens, UniProt P09923); experiment: inhibition of human intestinal alkaline phosphatase – biochemical, dose response (AID 488876); type: functional
[10] = target: Intestinal-type alkaline phosphatase (Mus musculus, UniProt P24822); experiment: PubChem AID 488785; type: functional
[11] = system: Streptococcus sp. 'group A'; experiment: Streptococcus pyogenes SK(-)GAS viability under kanamycin – luminescence, BacTiterGlo, confirmation, counter-screen for streptokinase expression inhibitor project, dose response (AID 1900); type: functional, organism-based
[12] = target: T3, Streptokinase A (Streptococcus pyogenes serotype M1, UniProt P10520); experiment: viability-normalized secreted streptokinase activity reduction – plasminogen activation absorbance, OD405, dose response (AID 1914); type: functional, Streptococcus pyogenes M1 GAS;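 note: secreted streptokinase activity via plasminogen activation per viability signal from cell pellet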
T3 sequence (P10520 whole entry): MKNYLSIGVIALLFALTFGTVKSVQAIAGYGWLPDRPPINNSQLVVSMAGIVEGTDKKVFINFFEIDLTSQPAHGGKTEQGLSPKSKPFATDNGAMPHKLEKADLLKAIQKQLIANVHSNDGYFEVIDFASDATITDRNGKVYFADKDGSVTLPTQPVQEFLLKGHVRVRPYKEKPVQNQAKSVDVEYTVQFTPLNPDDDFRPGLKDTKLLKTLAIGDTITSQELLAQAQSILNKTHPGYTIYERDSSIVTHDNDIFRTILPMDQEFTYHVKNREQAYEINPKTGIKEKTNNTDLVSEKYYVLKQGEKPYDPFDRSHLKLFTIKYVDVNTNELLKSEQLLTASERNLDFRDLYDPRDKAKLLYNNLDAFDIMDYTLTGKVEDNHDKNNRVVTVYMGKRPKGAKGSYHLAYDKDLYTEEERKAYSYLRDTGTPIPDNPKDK

[13] = system: Streptococcus; experiment: GAS UMAA2166 growth inhibition – luminescence, BacTiterGlo, counter-screen for streptokinase expression inhibitor project, dose response (AID 1915); type: functional, organism-based;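 note: potency for reduction of bacterial viability or growth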
[14] = luciferase reporter signal suppression in cells – H4 neuroglioma cells, luminescence, dose response (AID 1990); type: functional, cell-based
[15] = system: BJ; experiment: BJ-TERT-LT-ST fibroblast viability loss – cell-based, RAS-independent, luminescence, dose response (AID 1935); type: functional; conditions: Homo sapiens;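 note: BJ fibroblasts immortalized with TERT plus LT and ST oncogenes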
[16] = target: Large T antigen (Simian virus 40, UniProt P03070); type: functional, Betapolyomavirus macacae;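 note: Confirmatory-stage PubChem screen for compounds that inhibit SV40 T antigen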
[17] = DRD fibroblast viability loss – cell-based, non-viral oncogenic, luminescence, dose response (AID 1934); type: functional; conditions: Homo sapiens
[18] = alpha-synuclein stem-loop luciferase translation blockers – H4 neuroglioma cells, luminescence, confirmation (AID 1988); type: functional, cell-based
[19] = target: Heat shock protein HSP 90-alpha (Homo sapiens, UniProt P07900); type: functional, organism-based
[20] = Luminescence Cell-Based Dose Response HTS to Identify Inhibitors of 5'UTR Stem-Loop Driven Prion Protein mRNA Translation in H4 Neuroglioblastoma Cells. [Related pubchem assays: 1827 (Project Summary), 1813 (Primary HTS)]; type: functional
[21] = system: INS1; experiment: INS-1E survival protection against cytokine death – cell-based, luminescence, retest, dose response (AID 449756); type: functional; conditions: Rattus norvegicus;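 note: cell death triggered by IL-1 beta plus TNF-alpha plus IFN-gamma mixture; protective hits raise ATP signal compared with cytokine alone wells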
[22] = target: Glucose-6-phosphate 1-dehydrogenase (Homo sapiens, UniProt P11413); experiment: inhibition of Homo sapiens G6PD, dose series – biochemical, fluorescence, selectivity assay for P. falciparum G6PD inhibitor project, dose response (AID 504792); type: functional
[23] = system: BJ; experiment: cells; type: functional, cell-based; conditions: Homo sapiens
[24] = system: BJ; experiment: BJ-TERT fibroblast viability loss – cell-based, RAS-independent, luminescence, dose response (AID 1933); type: functional; conditions: Homo sapiens

Chain of Intestinal-type alkaline phosphatase (Homo sapiens, UniProt P09923) (P09923 whole entry): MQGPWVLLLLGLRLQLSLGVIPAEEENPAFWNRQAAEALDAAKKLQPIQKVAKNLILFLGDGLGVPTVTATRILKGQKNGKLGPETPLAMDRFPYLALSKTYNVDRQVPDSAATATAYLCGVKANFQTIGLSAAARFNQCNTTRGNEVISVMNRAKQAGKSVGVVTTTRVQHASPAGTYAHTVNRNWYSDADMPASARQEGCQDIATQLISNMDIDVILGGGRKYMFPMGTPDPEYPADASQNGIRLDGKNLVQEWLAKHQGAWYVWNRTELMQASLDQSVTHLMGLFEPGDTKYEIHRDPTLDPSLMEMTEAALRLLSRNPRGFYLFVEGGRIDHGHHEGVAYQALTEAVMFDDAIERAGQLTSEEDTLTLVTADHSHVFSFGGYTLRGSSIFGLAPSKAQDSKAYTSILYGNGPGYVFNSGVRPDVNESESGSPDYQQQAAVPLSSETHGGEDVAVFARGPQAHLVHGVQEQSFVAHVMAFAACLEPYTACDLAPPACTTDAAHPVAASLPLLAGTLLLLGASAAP
Chain of Intestinal-type alkaline phosphatase (Mus musculus, UniProt P24822) (P24822 whole entry): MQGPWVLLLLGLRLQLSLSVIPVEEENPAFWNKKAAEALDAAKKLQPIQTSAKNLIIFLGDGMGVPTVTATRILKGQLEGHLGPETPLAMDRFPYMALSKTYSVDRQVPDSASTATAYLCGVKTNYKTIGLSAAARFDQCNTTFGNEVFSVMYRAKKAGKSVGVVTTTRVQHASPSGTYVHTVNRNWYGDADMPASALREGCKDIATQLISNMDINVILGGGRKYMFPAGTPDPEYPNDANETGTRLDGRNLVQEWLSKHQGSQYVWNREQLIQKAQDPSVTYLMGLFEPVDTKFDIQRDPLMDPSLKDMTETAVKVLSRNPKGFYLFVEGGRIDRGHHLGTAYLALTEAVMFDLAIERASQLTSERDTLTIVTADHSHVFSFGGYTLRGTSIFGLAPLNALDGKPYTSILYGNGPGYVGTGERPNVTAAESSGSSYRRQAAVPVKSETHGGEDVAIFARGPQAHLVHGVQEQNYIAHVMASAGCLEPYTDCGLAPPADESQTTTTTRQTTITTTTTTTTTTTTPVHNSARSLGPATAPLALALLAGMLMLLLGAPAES
T1 sequence (Q00975 whole entry): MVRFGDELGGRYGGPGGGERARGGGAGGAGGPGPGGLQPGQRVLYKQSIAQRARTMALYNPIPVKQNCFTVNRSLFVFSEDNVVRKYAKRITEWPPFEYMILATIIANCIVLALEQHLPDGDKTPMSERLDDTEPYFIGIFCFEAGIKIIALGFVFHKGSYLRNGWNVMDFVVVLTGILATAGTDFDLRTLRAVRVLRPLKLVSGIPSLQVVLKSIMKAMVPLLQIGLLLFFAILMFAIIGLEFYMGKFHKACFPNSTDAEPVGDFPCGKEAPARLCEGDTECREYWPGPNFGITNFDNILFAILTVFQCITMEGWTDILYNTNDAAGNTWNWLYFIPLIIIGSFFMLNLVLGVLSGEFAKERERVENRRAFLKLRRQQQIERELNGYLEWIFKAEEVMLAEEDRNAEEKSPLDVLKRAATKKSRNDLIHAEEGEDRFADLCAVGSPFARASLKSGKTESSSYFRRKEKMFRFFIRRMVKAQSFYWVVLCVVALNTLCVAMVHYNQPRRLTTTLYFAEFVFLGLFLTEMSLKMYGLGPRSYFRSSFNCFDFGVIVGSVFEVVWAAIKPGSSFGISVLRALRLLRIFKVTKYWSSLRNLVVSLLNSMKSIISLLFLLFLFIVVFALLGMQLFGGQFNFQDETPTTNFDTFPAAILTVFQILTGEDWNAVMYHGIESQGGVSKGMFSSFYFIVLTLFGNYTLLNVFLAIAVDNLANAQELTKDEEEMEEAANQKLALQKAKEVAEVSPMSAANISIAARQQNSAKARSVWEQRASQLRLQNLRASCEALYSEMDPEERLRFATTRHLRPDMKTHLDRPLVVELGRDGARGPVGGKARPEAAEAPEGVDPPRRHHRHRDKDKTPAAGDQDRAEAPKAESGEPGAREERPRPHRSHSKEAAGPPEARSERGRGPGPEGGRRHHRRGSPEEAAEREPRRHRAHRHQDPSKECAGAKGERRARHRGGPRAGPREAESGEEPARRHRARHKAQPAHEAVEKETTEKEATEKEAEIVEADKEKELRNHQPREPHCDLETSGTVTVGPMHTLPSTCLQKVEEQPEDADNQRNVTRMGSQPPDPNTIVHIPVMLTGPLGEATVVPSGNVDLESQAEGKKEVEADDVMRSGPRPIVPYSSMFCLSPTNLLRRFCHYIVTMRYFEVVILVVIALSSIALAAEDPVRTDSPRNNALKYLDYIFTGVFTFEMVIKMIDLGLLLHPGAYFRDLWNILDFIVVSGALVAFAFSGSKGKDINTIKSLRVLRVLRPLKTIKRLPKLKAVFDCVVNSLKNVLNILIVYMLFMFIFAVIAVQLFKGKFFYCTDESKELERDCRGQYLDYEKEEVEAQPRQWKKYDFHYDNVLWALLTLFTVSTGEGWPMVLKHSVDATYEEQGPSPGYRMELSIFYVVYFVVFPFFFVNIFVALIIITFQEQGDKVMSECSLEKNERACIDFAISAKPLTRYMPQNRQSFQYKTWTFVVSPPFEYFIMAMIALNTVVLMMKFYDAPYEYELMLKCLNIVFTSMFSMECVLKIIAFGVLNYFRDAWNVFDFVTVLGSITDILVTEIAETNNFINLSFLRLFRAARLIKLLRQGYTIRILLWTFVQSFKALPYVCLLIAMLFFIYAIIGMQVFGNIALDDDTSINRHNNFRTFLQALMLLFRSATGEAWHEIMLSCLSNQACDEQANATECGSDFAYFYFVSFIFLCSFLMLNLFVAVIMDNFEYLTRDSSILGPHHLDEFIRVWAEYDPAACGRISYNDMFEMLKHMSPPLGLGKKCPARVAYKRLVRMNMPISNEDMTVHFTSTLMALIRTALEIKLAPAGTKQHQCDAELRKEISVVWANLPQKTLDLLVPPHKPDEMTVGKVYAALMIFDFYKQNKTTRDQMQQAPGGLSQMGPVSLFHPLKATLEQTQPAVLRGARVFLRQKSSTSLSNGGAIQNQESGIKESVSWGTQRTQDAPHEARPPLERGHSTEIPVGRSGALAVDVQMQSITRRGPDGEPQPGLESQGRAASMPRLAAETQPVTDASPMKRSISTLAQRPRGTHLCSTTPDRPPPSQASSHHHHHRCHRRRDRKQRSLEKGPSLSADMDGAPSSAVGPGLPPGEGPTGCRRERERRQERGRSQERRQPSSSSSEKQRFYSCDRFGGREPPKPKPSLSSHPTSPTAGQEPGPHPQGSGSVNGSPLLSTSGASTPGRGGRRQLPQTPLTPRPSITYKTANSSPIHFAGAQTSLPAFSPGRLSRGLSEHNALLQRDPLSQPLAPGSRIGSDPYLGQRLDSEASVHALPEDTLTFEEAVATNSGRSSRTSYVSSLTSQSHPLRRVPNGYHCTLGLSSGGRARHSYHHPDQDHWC
T1 sequence (Q02410 whole entry): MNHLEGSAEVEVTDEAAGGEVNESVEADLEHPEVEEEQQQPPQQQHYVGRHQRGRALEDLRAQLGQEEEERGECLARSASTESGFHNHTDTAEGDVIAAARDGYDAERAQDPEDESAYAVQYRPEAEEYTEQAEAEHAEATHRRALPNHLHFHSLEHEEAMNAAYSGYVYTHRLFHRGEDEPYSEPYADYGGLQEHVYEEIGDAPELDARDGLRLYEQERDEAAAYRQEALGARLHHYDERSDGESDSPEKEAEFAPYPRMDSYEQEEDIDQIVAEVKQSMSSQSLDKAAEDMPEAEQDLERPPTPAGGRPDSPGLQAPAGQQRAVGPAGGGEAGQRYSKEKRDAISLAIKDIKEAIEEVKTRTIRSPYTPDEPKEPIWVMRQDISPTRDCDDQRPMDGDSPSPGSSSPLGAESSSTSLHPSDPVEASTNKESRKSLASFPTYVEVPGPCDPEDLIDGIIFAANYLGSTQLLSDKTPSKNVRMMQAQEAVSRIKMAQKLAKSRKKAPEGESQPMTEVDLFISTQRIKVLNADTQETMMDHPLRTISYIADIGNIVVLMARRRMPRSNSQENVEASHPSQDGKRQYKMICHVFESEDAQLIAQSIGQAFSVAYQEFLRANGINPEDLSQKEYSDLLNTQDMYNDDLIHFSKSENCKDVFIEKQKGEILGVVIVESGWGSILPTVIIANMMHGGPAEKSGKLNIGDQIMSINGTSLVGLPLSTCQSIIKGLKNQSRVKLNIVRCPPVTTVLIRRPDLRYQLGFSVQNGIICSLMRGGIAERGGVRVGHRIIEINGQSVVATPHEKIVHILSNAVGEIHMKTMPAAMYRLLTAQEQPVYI
Chain of Large T antigen (P03070 whole entry): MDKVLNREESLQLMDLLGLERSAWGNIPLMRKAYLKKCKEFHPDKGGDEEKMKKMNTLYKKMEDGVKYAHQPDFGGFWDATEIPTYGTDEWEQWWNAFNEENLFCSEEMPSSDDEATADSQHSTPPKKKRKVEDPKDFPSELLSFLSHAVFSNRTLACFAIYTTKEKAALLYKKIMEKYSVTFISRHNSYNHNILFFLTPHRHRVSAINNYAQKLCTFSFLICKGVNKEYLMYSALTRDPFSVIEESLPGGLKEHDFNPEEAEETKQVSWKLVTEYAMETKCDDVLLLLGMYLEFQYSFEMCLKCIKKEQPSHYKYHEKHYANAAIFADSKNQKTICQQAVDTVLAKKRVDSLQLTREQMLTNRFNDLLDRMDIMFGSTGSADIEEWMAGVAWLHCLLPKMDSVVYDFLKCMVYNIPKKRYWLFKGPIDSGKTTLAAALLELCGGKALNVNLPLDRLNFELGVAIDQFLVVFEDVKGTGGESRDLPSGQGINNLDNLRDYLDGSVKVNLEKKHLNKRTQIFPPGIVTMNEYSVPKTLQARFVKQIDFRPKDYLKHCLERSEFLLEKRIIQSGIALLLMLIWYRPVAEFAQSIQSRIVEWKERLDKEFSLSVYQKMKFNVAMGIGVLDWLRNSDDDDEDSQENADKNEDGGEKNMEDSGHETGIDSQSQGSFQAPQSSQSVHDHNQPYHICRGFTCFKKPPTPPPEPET

With `CCO[C@H]1OC(C(=O)NCc2nc3ccccc3[nH]2)=C[C@@H](C2CC2)[C@@H]1CCCO` the IC50 [1] was > 80 µM (inactive).
For `CCc1ccc(N2CSC3=C(C#N)C(c4cccs4)CC(=O)N3C2)cc1` (stereo unspecified), the EC50 [2] was 77.8 µM (not active), the EC50 [3] was 63.3 µM (not active) and the IC50 [4] was 13.1 µM (active). For the same compound, the IC50 [5] was 8.18 µM (active), the EC50 [6] was 50.7 µM (not active) and the IC50 [7] was > 50 µM (inactive).
For `O=S(=O)(c1ccc2nc(O)oc2c1)N1CCCCC1`, the IC50 [8] was 36.5 µM (active), the IC50 [9] was > 100 µM (inactive) and the IC50 [10] was 1.67 µM (active).
In the case of `Cc1ccc(CN=C(S)NC2CCC(C(C)(C)C)CC2)cc1` (stereo unspecified), the IC50 [8] is reported as 48 µM (active), the EC50 [11] is reported as 5.46 µM (active) and the IC50 [9] is reported as > 100 µM (inactive). For the same compound, the EC50 [12] was 13.1 µM (active), the EC50 [13] was > 150 µM (not active) and the IC50 [10] was 2.35 µM (active).
For `COc1cc(/C=C/C(=O)c2ccc([N+](=O)[O-])o2)ccc1O`, the EC50 [14] was > 30 µM (not active), the EC50 [15] was 1.09 µM (inconclusive) and the IC50 [16] was 8.65 µM (active). The EC50 [11] was 3.09 µM (active), the EC50 [12] was 12.8 µM (active) and the EC50 [17] was 2.04 µM (inconclusive). The EC50 [18] was 8.16 µM (active), the IC50 [1] was 28.5 µM (inactive) and the AC50 [19] was 4.28 µM (active). For the same compound, the EC50 [20] was 7.59 µM (active), the AC50 [21] was 2.68 µM (active) and the IC50 [22] was 60.4 µM (inactive). For the same compound, the EC50 [13] was 11.8 µM (active), the EC50 [23] was > 150 µM (inconclusive) and the EC50 [24] was > 150 µM (not active).
